Data taken from patent US20160103138A1, “METHODS FOR ANALYZING ELASTIC FIBER INJURY MARKERS AND DIAGNOSIS OF DISEASES ASSOCIATED WITH ELASTIC FIBER INJURY” (priority 2013, published 2016).
Each block holds one molecule with its values, some of them ahead of it.

How the values were obtained:
[1] = 6N HCl (Ma, S. et al., 2011); cited from earlier work
[2] = system: desmosine and isodesmosine (DI) in epithelial lining fluid obtained by BALF (elastin degradation); assay: Effect of alpha-1 antitrypsin augmentation therapy on DI levels in BALF of AATD patients; format: in vivo, human
Text: (§1) There were 4 sources of body fluid samples analyzed: 1) plasma samples from 47 patients receiving alpha-1 antitrypsin protein from human blood sources, commercially available, compared with 50 AATD patients not on AAT augmentation and 50 normal subjects; 2) 11 patients with homozygous severe AATD who provided plasma samples before the start of IV therapy and then 12 and 24 weeks later; 3) 10 patients with homozygous AATD receiving IV replacement provided BALF at 12 weeks (the dose administered was 60 mg/kg body weight each week in the above patient groups); and 4) patients received a recombinantly produced AAT which was administered as an aerosol for 8 weeks. (Spencer et al., 2005) (the administered dose was 250 mg of aerosolized transgenic AAT each day). Eight patients provided BALF, 12 patients provided plasma samples, and 5 patients provided urine samples at baseline and after 8 weeks of aerosol therapy.
The following 3 methods were used to define the alpha-1 genomes: 1) genotype by allelic discrimination using TaqMan (S&Z alleles), ABI 7500 Fast Real-time PCR System; 2) AAT Level by Immunogenic assay, Dade Behring Nephelometer BN II and 3) phenotyping by isoelectric focusing, Pharmacia Biotech Multiphore II. […] (Ma et al., 2011) The content of DI in BALF was calculated as the concentration of DI per ml of BALF using urea as a marker of dilution. […]

[3] = system: urinary desmosine and isodesmosine (DI); assay: Effect of aerosol alpha-1 antitrypsin augmentation therapy on urinary DI (free and total); format: in vivo, human; details: before vs after aerosol augmentation therapy
Text: as §1
(§2) The following 3 methods were used to define the alpha-1 genomes: 1) genotype by allelic discrimination using TaqMan (S&Z alleles), ABI 7500 Fast Real-time PCR System; 2) AAT Level by Immunogenic assay, Dade Behring Nephelometer BN II and 3) phenotyping by isoelectric focusing, Pharmacia Biotech Multiphore II. The method of analysis for desmosine and isodesmosine (DI) in plasma, BALF and urine is as described. (Ma et al., 2011) The content of DI in BALF was calculated as the concentration of DI per ml of BALF using urea as a marker of dilution. (Rennard et al., 1986).
(§3) High performance liquid chromatography and tandem mass spectrometry as described (Ma et al., 2011) were used.
(§4) The T-test was used to compare the effects of augmentation therapy on the large patient cohorts. The paired T-test was used to compare the changes before and after therapy in individuals. The linear regression was used to determine the relationships of age to levels of DI.

[4] = system: desmosine and isodesmosine (DI) in plasma (elastin degradation); assay: Effect of alpha-1 antitrypsin augmentation therapy on DI levels in plasma of AATD patients; format: in vivo, human; details: for change in DI in plasma from baseline: 11 patients, intravenous replacement
Text: as §1, §2, §3, §4

[5] = system: urinary desmosine; details: cited from earlier work
[6] = Stability of DES-d4 (IS) in 6N HCl at 110° C., recovery by LC-MS/MS; format: physicochemical; details: heated at 110° C. for 24, 48, and 72 hours
Experimental: Step 1: Acid hydrolysis: DES-d4 IS (5 ng) was added to the analytical samples (0.5 ml) in a glass vial with equal volumes of concentrated HCl (37%). Air in the vial was displaced with nitrogen, and was heated at 110° C. for 24 hours. The hydrolyzed sample was filtered and evaporated to dryness.
Step 3: LC-MS/MS analysis: A TSQ Discovery electrospray tandem mass spectrometer (Thermo Fisher Scientific) was used for LC-MS/MS analysis. HPLC conditions used were a 2 mm×150 mm dC18 (3 μm) column (Waters, Mass.) and the mobile phase A (7 mM HFBA/5 mM NH4Ac in water) and B (7 mM HFBA/5 mM NH4Ac in 80% acetonitrile) were programmed linearly from 100% A to 82% A in 12 m. Quantitation was performed by selected reaction monitoring (SRM) of the transitions of both DES and IDS (m/z 526 to m/z 481+m/z 397) and the IS (m/z 530 to m/z 485), with collision energy set at 33 V for both transitions, collision gas pressure was 1.5 mTorr, tube lens at 132 V, with sheath gas pressure set at 45 and auxiliary gas pressure at 6 units and ion spray voltage at 3.8 kV. The scan time was set at 1.00 ms and both quadrupoles (Q1 and Q3) were at 0.7 Da FWHM.
The stability of DES-d4 and reliability during use as the IS for the isotope dilution LC-MS/MS analysis of DES and IDS were examined. […]

[7] = system: leukotriene B-5, interleukin-8 and neutrophil elastase in sputum; details: after weeks of supplementation therapy with I.V. AAT (Stockley et al., 2002); cited from earlier work

Molecule: N[C@@H](CCCc1c(CC[C@H](N)C(=O)O)c[n+](CCCC[C@H](N)C(=O)O)cc1CC[C@H](N)C(=O)O)C(=O)[O-] [DES, Desmosine]
stability during acid hydrolysis (in words) [1]: stable

Molecule: aerosolized transgenic AAT: recombinantly produced AAT which was administered as an aerosol for 8 weeks
mean reduction of DI levels in BALF ([2]; 8 patients, AAT by aerosol administration, 8 weeks, p=0.0078): −58.5% | reduction in the free component of DI excretion in urine ([3]; 4 of the 5 subjects): 0.1-13.0% | average reduction of percent of free DI over total DI excretion in urine ([3]; 5 subjects, p=0.0625): 21.6% | increase in excretion of free DI in urine ([3]; one of the 5 subjects): 75.3% | mean decrease of DI in plasma ([4]; 12 patients, before vs after 8 weeks aerosol augmentation therapy (250 mg each day), not statistically significant (p=0.1675)): 6.5% | mean increase in DI in plasma ([4]; the 3 of 12 patients with increase, aerosol augmentation therapy, not statistically significant): 4.3% | average decrease of DI in plasma ([4]; the 9 of 12 patients with reduction, aerosol augmentation therapy, p=0.0142): 12.1%

Molecule: NC(CCCC[n+]1cc(CCC(N)C(=O)O)cc(CCC(N)C(=O)O)c1CCCC(N)C(=O)O)C(=O)O (stereo not drawn) [IDS, isodesmosine]
stability during acid hydrolysis (in words) [1]: stable

Molecule: Prolastin: AAT supplementation product (Bayer Company)
urinary desmosine excretion during supplementation vs run in ([5]; 12 AATD subjects, weekly 60 mg/kg for 4 weeks (Gottlieb et al., 2000)): unchanged

stability of DES-d4 under acid hydrolysis (in words) [6]: stable with nearly complete recovery
Molecule: [2H]C([2H])(C[C@H](N)C(=O)O)C([2H])([2H])c1c(CC[C@H](N)C(=O)O)c[n+](CCCC[C@H](N)C(=O)O)cc1CC[C@H](N)C(=O)O [DES-d4]

Molecule: AAT: alpha-1 antitrypsin protein from human blood sources, commercially available, given intravenously as augmentation therapy
overall average change of DI in BALF ([2]; 10 patients, before vs 12 weeks after IV augmentation therapy, p=0.0273): −37% | drop of mean post-treatment urinary desmosine from pre-treatment levels ([5]; two AATD patients, monthly infusions of 260 mg/kg, followed 18 months (Stone et al., 1995)): exceeded 35% | levels of leukotriene B-5, interleukin-8 and neutrophil elastase in sputum [7]: reduced levels | change in DI in plasma from baseline ([4]; 12 weeks of therapy): −13.9% | change in DI in plasma from baseline ([4]; 24 weeks of therapy): −20.3% | mean level of DI in plasma ([4]; AATD patients receiving augmentation therapy (IV, 60 mg/kg each week), n=50, no augmentation 0.36, normal 0.22): 0.25 ng/mL | plasma levels of DI, mean±SD ([4]; FIG. 7, augmentation group, n=50, no augmentation 0.36±0.01, normal 0.22±0.04): 0.25±0.01
